Measured values: ChEMBL document CHEMBL4680314, “Discovery of potent glycogen synthase kinase 3/cholinesterase inhibitors with neuroprotection as potential therapeutic agent for Alzheimer's disease” (Bioorg Med Chem, 2021)
Active and inactive are the calls of the source. The calls are words filed in the database; no cut-off is given here.

Test system: not listed separately
Experiment: AUC (0 to 24 hrs) in Sprague-Dawley rat at 10 mg/kg, po measured upto 24 hrs by LC-MS/MS analysis
Format: ADME, organism-based
Parameters: route oral, dose 10 mg/kg, time <=24
Conditions: in vivo

SMILES	AUC(0-t) [ng·h/mL]
NC(=O)c1sc(-c2ccnc(NC(=O)C3CC3)c2)nc1OCCCC1CCN(Cc2ccccc2)CC1	440

Test system: not listed separately
Experiment: AUC (0 to 24 hrs) in Sprague-Dawley rat at 5 mg/kg, iv measured upto 24 hrs by LC-MS/MS analysis
Format: ADME, organism-based
Parameters: route intravenous, dose 5 mg/kg, time <=24
Conditions: in vivo

SMILES	AUC(0-t) [ng·h/mL]
NC(=O)c1sc(-c2ccnc(NC(=O)C3CC3)c2)nc1OCCCC1CCN(Cc2ccccc2)CC1	1680

Test system: not listed separately
Experiment: AUC (0 to infinity) in Sprague-Dawley rat at 10 mg/kg, po by LC-MS/MS analysis
Format: ADME, organism-based
Parameters: route oral, time infinity, dose 10 mg/kg
Conditions: in vivo

SMILES	AUC(0-inf) [ng·h/mL]
NC(=O)c1sc(-c2ccnc(NC(=O)C3CC3)c2)nc1OCCCC1CCN(Cc2ccccc2)CC1	453

Test system: not listed separately
Experiment: Half life in Sprague-Dawley rat at 5 mg/kg, iv measured upto 24 hrs by LC-MS/MS analysis
Format: ADME, organism-based
Conditions: in vivo

SMILES	half-life [h]
NC(=O)c1sc(-c2ccnc(NC(=O)C3CC3)c2)nc1OCCCC1CCN(Cc2ccccc2)CC1	6.3

Test system: not listed separately
Experiment: Cmax in Sprague-Dawley rat at 5 mg/kg, iv measured upto 24 hrs by LC-MS/MS analysis
Format: ADME, organism-based
Parameters: route intravenous, dose 5 mg/kg, time <=24
Conditions: in vivo

SMILES	Cmax [ng/mL]
NC(=O)c1sc(-c2ccnc(NC(=O)C3CC3)c2)nc1OCCCC1CCN(Cc2ccccc2)CC1	771

Test system: not listed separately
Experiment: Toxicity in ICR mouse assessed as reduction in body weight at 15 mg/kg, po
Format: organism-based
Conditions: in vivo

SMILES	Activity
NC(=O)c1sc(-c2ccnc(NC(=O)C3CC3)c2)nc1OCCCC1CCN(Cc2ccccc2)CC1	Non-Toxic

Test system: not listed separately
Experiment: Ratio of drug level in ICR mouse brain to blood at 15 mg/kg, po measured after 90 mins by LC-MS/MS analysis
Format: ADME, organism-based
Conditions: 1.5 h

SMILES	Ratio [ng/kg]
NC(=O)c1sc(-c2ccnc(NC(=O)C3CC3)c2)nc1OCCCC1CCN(Cc2ccccc2)CC1	9.2

Test system: not listed separately
Experiment: Half life in Sprague-Dawley rat at 10 mg/kg, po measured upto 24 hrs by LC-MS/MS analysis
Format: ADME, organism-based
Conditions: in vivo

SMILES	half-life [h]
NC(=O)c1sc(-c2ccnc(NC(=O)C3CC3)c2)nc1OCCCC1CCN(Cc2ccccc2)CC1	3.9

Test system: not listed separately
Experiment: Tmax in Sprague-Dawley rat at 5 mg/kg, iv measured upto 24 hrs by LC-MS/MS analysis
Format: ADME, organism-based
Conditions: in vivo

SMILES	Tmax [min]
NC(=O)c1sc(-c2ccnc(NC(=O)C3CC3)c2)nc1OCCCC1CCN(Cc2ccccc2)CC1	4.98

Test system: not listed separately
Experiment: Plasma concentration in ICR mouse at 15 mg/kg, po measured after 90 mins by LC-MS/MS analysis
Format: ADME, organism-based
Conditions: not given

SMILES	concentration at 1.5 h [ng/mL]
NC(=O)c1sc(-c2ccnc(NC(=O)C3CC3)c2)nc1OCCCC1CCN(Cc2ccccc2)CC1	84.9

Test system: BV-2
Experiment: Anti-inflammatory activity in mouse BV-2 cells assessed as reduction in LPS-induced IL-1beta expression at 4 uM incubated for 1 hr followed by LPS stimulation and measured after 24 hrs by immunofluorescence based laser confocal microscopy
Format: functional, cell-based
Conditions: time 25.0 hrs

SMILES	Activity
NC(=O)c1sc(-c2ccnc(NC(=O)C3CC3)c2)nc1OCCCC1CCN(Cc2ccccc2)CC1	Active

Test system: not listed separately
Experiment: Clearance in Sprague-Dawley rat at 10 mg/kg, po measured upto 24 hrs by LC-MS/MS analysis
Format: ADME, organism-based
Conditions: in vivo

SMILES	CL/F [mL/min/kg]
NC(=O)c1sc(-c2ccnc(NC(=O)C3CC3)c2)nc1OCCCC1CCN(Cc2ccccc2)CC1	296

Test system: not listed separately
Experiment: Cmax in Sprague-Dawley rat at 10 mg/kg, po measured upto 24 hrs by LC-MS/MS analysis
Format: ADME, organism-based
Parameters: route oral, dose 10 mg/kg, time <=24
Conditions: in vivo

SMILES	Cmax [ng/mL]
NC(=O)c1sc(-c2ccnc(NC(=O)C3CC3)c2)nc1OCCCC1CCN(Cc2ccccc2)CC1	44.1

Test system: BV-2
Experiment: Cytotoxicity against mouse BV-2 cells assessed as effect on cell morphology
Format: cell-based
Conditions: not given

SMILES	Activity
NC(=O)c1sc(-c2ccnc(NC(=O)C3CC3)c2)nc1OCCCC1CCN(Cc2ccccc2)CC1	Non-Toxic

Target: Cholinesterase (Homo sapiens, UniProt P06276)
Sequence (P06276 whole entry): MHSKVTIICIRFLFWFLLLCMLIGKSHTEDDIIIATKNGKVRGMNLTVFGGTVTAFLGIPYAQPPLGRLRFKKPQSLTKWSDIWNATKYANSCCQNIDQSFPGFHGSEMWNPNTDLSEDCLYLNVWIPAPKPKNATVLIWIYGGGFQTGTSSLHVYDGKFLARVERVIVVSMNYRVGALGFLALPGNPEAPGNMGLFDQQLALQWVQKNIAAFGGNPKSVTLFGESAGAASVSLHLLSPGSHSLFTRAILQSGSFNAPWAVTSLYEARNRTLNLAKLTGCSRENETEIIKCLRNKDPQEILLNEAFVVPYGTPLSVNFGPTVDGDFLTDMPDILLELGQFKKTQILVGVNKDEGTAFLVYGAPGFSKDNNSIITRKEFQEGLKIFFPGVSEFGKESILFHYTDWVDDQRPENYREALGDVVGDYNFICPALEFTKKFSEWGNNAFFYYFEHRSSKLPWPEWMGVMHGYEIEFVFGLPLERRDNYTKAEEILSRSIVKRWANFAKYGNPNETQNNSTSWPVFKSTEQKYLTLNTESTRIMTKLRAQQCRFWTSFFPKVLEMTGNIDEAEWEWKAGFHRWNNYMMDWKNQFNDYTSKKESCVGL
Experiment: Inhibition of human BChE using butyrylthiocholineiodide as substrate incubated for 10 mins by Ellman's method
Conditions: not given

SMILES	IC50 [nM]
CNC(=O)c1sc(-c2ccnc(NC(=O)C3CC3)c2)nc1OC1CCN(Cc2ccccc2)CC1	31000
NC(=O)c1sc(-c2ccnc(NC(=O)C3CC3)c2)nc1OCCCC1CCN(Cc2ccccc2F)CC1	4200
NC(=O)c1sc(-c2ccnc(NC(=O)C3CC3)c2)nc1OCCCC1CCN(Cc2ccccc2)CC1	20600

Test system: BV-2
Experiment: Anti-inflammatory activity in mouse BV-2 cells assessed as reduction in LPS-induced IL-1beta production incubated for 1 hr followed by LPS stimulation and measured after 24 hrs by ELISA
Format: functional, cell-based
Conditions: dose 2-8 µM, time 25.0 hrs

SMILES	Activity
NC(=O)c1sc(-c2ccnc(NC(=O)C3CC3)c2)nc1OCCCC1CCN(Cc2ccccc2)CC1	Dose-dependent effect

Test system: not listed separately
Experiment: AUC (0 to infinity) in Sprague-Dawley rat at 5 mg/kg, iv by LC-MS/MS analysis
Format: ADME, organism-based
Parameters: route intravenous, dose 5 mg/kg
Conditions: in vivo

SMILES	AUC(0-inf) [ng·h/mL]
NC(=O)c1sc(-c2ccnc(NC(=O)C3CC3)c2)nc1OCCCC1CCN(Cc2ccccc2)CC1	1760

Test system: BV-2
Experiment: Anti-inflammatory activity in mouse BV-2 cells assessed as reduction in LPS-induced TNFalpha expression at 4 uM incubated for 1 hr followed by LPS stimulation and measured after 24 hrs by immunofluorescence based laser confocal microscopy
Format: functional, cell-based
Conditions: time 25.0 hrs

SMILES	Activity
NC(=O)c1sc(-c2ccnc(NC(=O)C3CC3)c2)nc1OCCCC1CCN(Cc2ccccc2)CC1	Active

Test system: not listed separately
Experiment: Drug uptake in mouse BV-2 cells at 25 uM incubated for 1 hr measured per million cells by LC-MS/MS analysis
Format: ADME, cell-based
Conditions: bv-2, 1 h

SMILES	Drug uptake [ng]
NC(=O)c1sc(-c2ccnc(NC(=O)C3CC3)c2)nc1OCCCC1CCN(Cc2ccccc2)CC1	103

Test system: not listed separately
Experiment: MRT (0 to t) in Sprague-Dawley rat at 10 mg/kg, po measured upto 24 hrs by LC-MS/MS analysis
Format: ADME, organism-based
Conditions: in vivo

SMILES	MRT last at 24 h [h]
NC(=O)c1sc(-c2ccnc(NC(=O)C3CC3)c2)nc1OCCCC1CCN(Cc2ccccc2)CC1	9.2

Test system: not listed separately
Experiment: Volume of distribution in Sprague-Dawley rat at 10 mg/kg, po measured upto 24 hrs by LC-MS/MS analysis
Format: ADME, organism-based
Conditions: in vivo

SMILES	Vd [L/kg]
NC(=O)c1sc(-c2ccnc(NC(=O)C3CC3)c2)nc1OCCCC1CCN(Cc2ccccc2)CC1	77

Test system: BV-2
Experiment: Anti-inflammatory activity in mouse BV-2 cells assessed as reduction in LPS-induced ROS production at 3 uM incubated for 1 hr followed by LPS stimulation and measured after 24 hrs by DCFH-DA staining based inverted fluorescence microscopy
Format: functional, cell-based
Conditions: time 25.0 hrs

SMILES	Activity
NC(=O)c1sc(-c2ccnc(NC(=O)C3CC3)c2)nc1OCCCC1CCN(Cc2ccccc2)CC1	Active

Test system: not listed separately
Experiment: Toxicity in ICR mouse model of scopolamine-induced cognitive dysfunction assessed as effect on locomotor activity by measuring effect on swimming speed at 15 mg/kg, po by Morris water maze test
Format: organism-based
Conditions: in vivo

SMILES	Activity
NC(=O)c1sc(-c2ccnc(NC(=O)C3CC3)c2)nc1OCCCC1CCN(Cc2ccccc2)CC1	Non-Toxic

Target: Glycogen synthase kinase-3 beta (Homo sapiens, UniProt P49841)
Sequence (P49841 whole entry): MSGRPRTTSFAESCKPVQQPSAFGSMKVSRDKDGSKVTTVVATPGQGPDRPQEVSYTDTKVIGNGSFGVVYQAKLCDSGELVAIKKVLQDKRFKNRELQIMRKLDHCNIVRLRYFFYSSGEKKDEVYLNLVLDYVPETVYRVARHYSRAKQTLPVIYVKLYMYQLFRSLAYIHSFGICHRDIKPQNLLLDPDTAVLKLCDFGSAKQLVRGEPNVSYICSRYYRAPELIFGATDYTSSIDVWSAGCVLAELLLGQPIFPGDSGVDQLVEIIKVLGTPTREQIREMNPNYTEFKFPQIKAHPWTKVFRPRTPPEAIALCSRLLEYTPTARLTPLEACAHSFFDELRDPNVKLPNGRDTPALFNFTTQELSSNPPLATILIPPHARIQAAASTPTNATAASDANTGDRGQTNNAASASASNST
Experiment: biochemical
Conditions: not given

SMILES	IC50 [nM]
CNC(=O)c1sc(-c2ccnc(NC(=O)C3CC3)c2)nc1OC1CCN(Cc2ccccc2)CC1	7
NC(=O)c1sc(-c2ccnc(NC(=O)C3CC3)c2)nc1OCCCC1CCN(Cc2ccccc2F)CC1	15
NC(=O)c1sc(-c2ccnc(NC(=O)C3CC3)c2)nc1OCCCC1CCN(Cc2ccccc2)CC1	8

Test system: not listed separately
Experiment: in vitro
Conditions: PAMPA
Description: Effective permeability of compound in PBS/EtOH buffer (7:3) at 25 ug/ml incubated for 18 hrs by PAMPA-BBB assay

SMILES	Papp at 18 h, 25 ug/ml [×10⁻⁶ cm/s]
NC(=O)c1sc(-c2ccnc(NC(=O)C3CC3)c2)nc1OCCCC1CCN(Cc2ccccc2F)CC1	7.1
NC(=O)c1sc(-c2ccnc(NC(=O)C3CC3)c2)nc1OCCCC1CCN(Cc2ccccc2)CC1	10.9

Test system: BV-2
Experiment: Anti-inflammatory activity in mouse BV-2 cells assessed as reduction in LPS-induced TNFalpha production incubated for 1 hr followed by LPS stimulation and measured after 24 hrs by ELISA
Format: functional, cell-based
Conditions: dose 2-8 µM, time 25.0 hrs

SMILES	Activity
NC(=O)c1sc(-c2ccnc(NC(=O)C3CC3)c2)nc1OCCCC1CCN(Cc2ccccc2)CC1	Dose-dependent effect

Test system: not listed separately
Experiment: MRT (0 to t) in Sprague-Dawley rat at 5 mg/kg, iv measured upto 24 hrs by LC-MS/MS analysis
Format: ADME, organism-based
Conditions: in vivo

SMILES	MRT last at 24 h [h]
NC(=O)c1sc(-c2ccnc(NC(=O)C3CC3)c2)nc1OCCCC1CCN(Cc2ccccc2)CC1	5.1

Test system: not listed separately
Experiment: Volume of distribution in Sprague-Dawley rat at 5 mg/kg, iv measured upto 24 hrs by LC-MS/MS analysis
Format: ADME, organism-based
Conditions: in vivo

SMILES	Vd [L/kg]
NC(=O)c1sc(-c2ccnc(NC(=O)C3CC3)c2)nc1OCCCC1CCN(Cc2ccccc2)CC1	30.7

Test system: not listed separately
Experiment: Clearance in Sprague-Dawley rat at 5 mg/kg, iv measured upto 24 hrs by LC-MS/MS analysis
Format: ADME, organism-based
Conditions: in vivo

SMILES	clearance [mL/min/kg]
NC(=O)c1sc(-c2ccnc(NC(=O)C3CC3)c2)nc1OCCCC1CCN(Cc2ccccc2)CC1	50.1

Test system: not listed separately
Experiment: Oral bioavailability in Sprague-Dawley rat at 10 mg/kg measured upto 24 hrs by LC-MS/MS analysis
Format: ADME, organism-based
Conditions: in vivo

SMILES	bioavailability [%]
NC(=O)c1sc(-c2ccnc(NC(=O)C3CC3)c2)nc1OCCCC1CCN(Cc2ccccc2)CC1	15.1

Test system: not listed separately
Experiment: Tmax in Sprague-Dawley rat at 10 mg/kg, po measured upto 24 hrs by LC-MS/MS analysis
Format: ADME, organism-based
Conditions: in vivo

SMILES	Tmax [h]
NC(=O)c1sc(-c2ccnc(NC(=O)C3CC3)c2)nc1OCCCC1CCN(Cc2ccccc2)CC1	8

Target: Acetylcholinesterase (Homo sapiens, UniProt P22303)
Sequence (P22303 whole entry): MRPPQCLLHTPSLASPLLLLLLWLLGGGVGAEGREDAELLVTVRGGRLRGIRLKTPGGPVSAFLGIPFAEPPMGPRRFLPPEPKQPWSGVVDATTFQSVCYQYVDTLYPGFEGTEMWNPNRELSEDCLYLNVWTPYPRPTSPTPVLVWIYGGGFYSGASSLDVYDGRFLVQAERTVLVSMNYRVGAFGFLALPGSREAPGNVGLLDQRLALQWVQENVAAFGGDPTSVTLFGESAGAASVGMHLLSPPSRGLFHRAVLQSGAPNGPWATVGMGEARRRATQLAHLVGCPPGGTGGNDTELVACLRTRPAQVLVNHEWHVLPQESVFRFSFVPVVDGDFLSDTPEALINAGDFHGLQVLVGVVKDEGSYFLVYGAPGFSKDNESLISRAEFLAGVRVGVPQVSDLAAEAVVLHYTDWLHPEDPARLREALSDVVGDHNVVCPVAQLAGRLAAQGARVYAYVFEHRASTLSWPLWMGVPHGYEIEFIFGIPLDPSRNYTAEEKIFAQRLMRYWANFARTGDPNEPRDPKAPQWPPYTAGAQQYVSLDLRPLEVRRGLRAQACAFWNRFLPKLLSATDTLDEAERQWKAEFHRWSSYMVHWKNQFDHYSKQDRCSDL
Experiment: Inhibition of human recombinant AChE expressed in HEK293 cells using acetylthiocholine iodide as substrate incubated for 10 mins by Ellman's method
Format: cell-based
Conditions: not given

SMILES	IC50 [nM]
CNC(=O)c1sc(-c2ccnc(NC(=O)C3CC3)c2)nc1OC1CCN(Cc2ccccc2)CC1	73000
NC(=O)c1sc(-c2ccnc(NC(=O)C3CC3)c2)nc1OCCCC1CCN(Cc2ccccc2F)CC1	1320
NC(=O)c1sc(-c2ccnc(NC(=O)C3CC3)c2)nc1OCCCC1CCN(Cc2ccccc2)CC1	380
